Assay results: US20040018151A1, “Use of anandamide/cannabinoid receptor/acceptor agonists in als screening and treatment methods” (priority 2002, published 2004)

Assays:
CB1 cannabinoid receptor = CB1 cannabinoid receptor (Homo sapiens, UniProt P21554); conditions: background statement; cited from earlier work
CB1 = CB1 (Homo sapiens, UniProt P21554); conditions: background statement; cited from earlier work
[1] = test system: mouse primary spinal cord cultures; assay: TBH oxidative damage in mixed spinal cord cultures (LDH release)
ALS patients = assay: Open label crossover escalating dose study of Marinol in ALS patients; assay type: in vivo, humans
[2] = test system: primary neuronal cultures prepared from mouse spinal cord; assay: Kainate excitotoxicity in spinal cord neuronal cultures; assay type: cell-based; conditions: previously observed
[3] = test system: hSOD1^G93A mice (ALS mice); assay: Rotarod endurance (disease progression) in hSOD1^G93A mice; assay type: in vivo; conditions: for Increase of A50% (age at which endurance declined to 50%) per 10 mg/kg of THC; A.(dose) estimate: nonlinear mixed effects model, rotarod; for Days from 9 to 1 min / Days to 50% endurance: prediction based on model
Experimental: (§1) hSOD1^G93A mice (ALS mice) were administered Δ^9-THC (5 and 10 mg/kg body weight) or vehicle beginning at 60 days of age, i.e., prior to onset of disease signs. The earliest clinical signs of disease observed were tremors and shaking of their limbs when mice were suspended briefly in the air by their tails. These signs were never seen in non-transgenic littermates, but were always seen in hSOD^G93A mice after 75 days. In a subsequent set of experiments, mice were administered 20 mg/kg Δ^9-THC beginning on day 75 when tremors were first observed, i.e., after onset of disease signs. Mice were evaluated on a rotarod to follow disease progression.
In order to assess the effect of Δ^9-THC on disease progression, a logistic response curve was fit to the endurance time for each mouse using a nonlinear mixed effects model. For these experiments, each mouse was assessed on the rotarod at 5 and 10 rpm. […] A50% increased 3.3 days (±1.1 day) per 10 mg/kg of THC (2-sided p=0.003). In other words, disease progression as assessed by rotarod performance was delayed 3.3 days in the 10 mg/kg and 6.6 days in the 20 mg/kg group as compared to the vehicle treated animals. This represents a 3% increase in motor performance endurance in the 10 mg/kg group and a 6% increase in the 20 mg/kg group. Note that the increase in the 20 mg/kg group was not affected by the delay in initiation of treatment.
Animals were assessed later in the disease by testing them at the slower rotarod speed (5 rpm). In the data analysis, A50% increased 6.5 days (±0.4 day) when changing from 10 rpm to 5 rpm. However, the rate of decline increased by a factor of 2 in going from 10 rpm to 5 rpm. This rate of decline can also be understood by expressing it as number of days to decline from 9 minutes to 1-minute endurance, based on the fitting equation. At 10 rpm, it took 17.1 (±1.76) days to decline from 9 to 1 minute vs. 8.55 (±0.88) days at 5 rpm. […] FIG. 1a. Δ^9-THC delays progression of disease in hSOD1^G93A mice. Motor function was tested weekly on the rotarod at 10 and 5 rpm. The decline in endurance over time for each animal at 10 rpm is shown in (a). Mouse numbers 1-13 correspond to vehicle treated animals, numbers 1001-1008 correspond to the 10 mg/kg Δ^9-THC treatment group, and 2001-2009 correspond to the 20 mg/kg Δ^9-THC treatment group.
FIG. 1b Logistic response curves showing declines based on fitting a logistic model to observed data. Solid curves are tests at 10 rpm, dashed curves for 5 rpm. The three curves for each rpm are for doses of 0 (vehicle, blue), 10 (mg/kg Δ^9-THC, green) and 20 (mg/kg Δ^9-THC, red). Parameters for curves are based on a nonlinear mixed effects model given by Time=10/(1+exp((Age-A)/B)).

[4] = test system: hSOD1^G93A mice (ALS mice); assay: Survival of hSOD1^G93A mice; assay type: in vivo
Experimental: as §1
In these experiments, the treatment effect was to slow the progression of disease (FIG. 1b). Furthermore, treatment with Δ^9-THC improved survival. […] Treatment with 10 mg/ kg Δ^9-THC extended mean survival from 125.9±1.6 days (vehicle, n=15) to 131.8±2.4 days (Δ^9-THC, n=8, p<0.05)(FIG. 2a, c). This represents a […] increase in survival in the 10 mg/ kg Δ^9-THC-treated group. At a (delayed) dose of 20 mg/kg the increase in mean survival was 6.4 days (5.1%).
FIG. 2. Δ^9-THC extends survival in hSOD1^G93A mice. Cumulative survival in hSOD1^G93A mice treated with 10 mg/kg Δ^9-THC (a) or 20 mg/kg Δ^9-THC (b). Mortality of hSOD1^G93A mice treated with Δ^9-THC or vehicle (c).

rodents = assay: Motor toxicity in rodents; assay type: in vivo; conditions: intraperitoneally
Experimental: For THC the effective dose range should be 10 mg-70 mg/kg/day intraperitoneally in rodents. Motor toxicity is seen at 84 mg/kg/day. An estimate of effective dose range in rodents can be obtained from comparison to other measures of bioactivity of these compounds, e.g. in analgesia and/or anticonvulsant activity. […] However, other routes of administration may include intravenous, inhaled or sub-lingual, formulations such as in a patch or a spray, whereby the doses would most likely be different (e.g. 100 mg/day in a patch) in both rodents and humans.

[5] = test system: hSOD1^G93A mice (ALS mice); assay: Behaviour and body weight of treated hSOD1^G93A mice; assay type: in vivo
Experimental: as §1

[6] = test system: primary neuronal cultures prepared from mouse spinal cord; conditions: Abood et al, Neurosci Lett 309:197-201, 2001; cited from earlier work
[7] = rpm 10, dose 10 as printed (r11)

Sequence of CB1 cannabinoid receptor (P21554 whole entry): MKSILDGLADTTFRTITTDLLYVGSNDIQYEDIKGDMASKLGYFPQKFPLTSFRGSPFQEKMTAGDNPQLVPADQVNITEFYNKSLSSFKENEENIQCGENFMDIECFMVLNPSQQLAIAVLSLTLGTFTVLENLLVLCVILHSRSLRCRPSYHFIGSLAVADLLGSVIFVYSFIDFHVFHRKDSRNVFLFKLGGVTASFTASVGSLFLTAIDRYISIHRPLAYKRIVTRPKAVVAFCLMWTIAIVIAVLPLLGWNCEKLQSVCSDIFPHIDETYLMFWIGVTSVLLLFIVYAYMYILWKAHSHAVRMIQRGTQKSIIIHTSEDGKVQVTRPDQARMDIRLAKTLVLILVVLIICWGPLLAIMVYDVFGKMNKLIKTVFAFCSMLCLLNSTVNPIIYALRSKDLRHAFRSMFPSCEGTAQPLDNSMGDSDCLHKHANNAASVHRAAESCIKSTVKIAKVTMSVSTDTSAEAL
Sequence of CB1 (P21554 whole entry): as above

## CCCCCc1cc(O)c2c(c1)OC(C)(C)C1CCC(CO)=CC21 (stereo not shown) [11-hydroxy-THC]
CB1 cannabinoid receptor
  Agonist potency/activity relative to THC: more active than its parent

## CCCCCCC(C)(C)c1cc(O)c2c(c1)OC(C)(C)[C@@H]1CC=C(CO)C[C@@H]21 [HU-210]
CB1 cannabinoid receptor
  Activity at central (CB1) receptor: retains activity at central (CB1)

## CCCCCCC(C)(C)c1cc(O)c2c(c1)OC(C)(C)[C@H]1CC=C(CO)C[C@H]21 [HU-211, dexanabinol]
CB1 cannabinoid receptor
  Activity at central (CB1) receptor: inactive

## CCCCCCCC/C=C\CCCCCCCC(N)=O [Oleamide]
CB1
  Binding to CB1: does not bind CB1

## CCCc1cc(O)c2c(c1)OC(C)(C)[C@@H]1CCC(C)=C[C@@H]21 [Propyl-THC]
CB1 cannabinoid receptor
  Agonist potency/activity relative to THC: less agonist activity than THC

## Cc1c(C(=O)NN2CCCCC2)nn(-c2ccc(Cl)cc2Cl)c1-c1ccc(Cl)cc1 [SR141716A]
[1]; 1 μM SR141716A plus 0.5 μM Δ^9-THC, TBH
  Block of the antioxidant effect of Δ^9-THC: not blocked

## CCCCCc1cc(O)c2c(c1)OC(C)(C)[C@@H]1CCC(C)=C[C@@H]21 [Δ^9-THC, delta-9-tetrahydrocannabinol]
[1]; 200 μM TBH for 5 hours in the presence of 0.5 μM Δ^9-THC, TBH alone 74 (±14) %, n=4
  Cytotoxicity: 28 (±8) %
ALS patients; 3 month trial period
  Patients showing reduction in rate of decline of ALSFRS: 11 of the 19
ALS patients; 25 patients treated, one death unrelated to drug effect
  Serious adverse events: no other serious adverse events
ALS patients; ALS patients while taking Marinol
  Symptomatic benefits: Symptomatic benefits were seen in insomnia, appetite, fasciculations and spasticity
ALS patients; ALS patients, oral, escalating dose 2.5-10 mg, 3 months
  Tolerability: well tolerated
ALS patients; humans, 10 mg/day orally
  Tolerability: well tolerated
ALS patients; when patients were taking drug
  Average rate of decline (ALSFRS): 27%
[2]
  Protection of spinal cord neurons against direct excitotoxin (kainate) exposure, compared with NBQX: as effective as the anti-excitotoxic compound NBQX
[3]; 10 mg/kg
  Delay of disease progression as assessed by rotarod performance vs vehicle: 3.3 days
  Increase in motor performance endurance: 3%
[3]; 20 mg/kg
  Increase in motor performance endurance: 6%
[3]; 20 mg/kg, from day 75
  Delay of disease progression as assessed by rotarod performance vs vehicle: 6.6 days
[3]
  Increase of A50% (age at which endurance declined to 50%) per 10 mg/kg of THC; A.(dose) estimate: 3.29 days
[3]; listed as THC
  Increase of A50% (age at which endurance declined to 50%) per 10 mg/kg of THC; A.(dose) estimate: 3.3 days
[3]; rpm 5, dose 10
  Days from 9 to 1 min: 8.55 days
  Days to 50% endurance: 109.8 days
[3]; rpm 5, dose 20
  Days from 9 to 1 min: 8.55 days
  Days to 50% endurance: 113.1 days
[3]; rpm 10, dose 10 (r10)
  Days from 9 to 1 min: 17.10 days
  Days to 50% endurance: 103.3 days
[3]; [7]
  Days from 9 to 1 min: 17.10 days
  Days to 50% endurance: 106.6 days
[4]; 5 mg/kg
  Survival: trend towards increased survival
[4]; 10 mg/kg, n=8, vehicle 125.9±1.6 days
  Mean survival: 131.8 ± 2.4 days
rodents
  Dose at which motor toxicity is seen: 84 mg/kg/day
[5]; 5, 10, 20 mg/kg vs vehicle
  Weights, difference between treatment groups: no significant difference in weights
[5]; any of the doses given (5, 10, 20 mg/kg)
  Overt behavioral changes: No overt behavioral changes
[6]
  Kainate toxicity: effectively reduce kainate toxicity
